The target of one data set is T1, human QPCT (Homo sapiens, UniProt Q16769).
T1 construct: purchased Anaspec AS-72230
The data set can be described thus: Inhibition of human QPCT enzyme activity (SensoLyte Green Glutaminyl Cyclase Activity Assay Kit). The data set is classed as biochemical. The following applies: fluorescence Ex/Em = 490 nm/520 nm. How it is done: (§1) The inhibition of human QPCT/QPCTL enzyme activity by the compounds was assessed using SensoLyte® Green Glutaminyl Cyclase Activity Assay Kit.
(§2) The working solutions of the test compounds were serially 6-fold diluted from an initial concentration of 200 µM to 7 concentration points in total. In the 75 µL reaction system, the initial working concentration of the test compound was 13.3 µM, and the final concentration of DMSO was 0.3%. 20 µL of prepared QPCT enzyme solution, 5 µL of test compound, and 25 µL of QPCT enzyme substrate were successively added to each well of a 384-well plate. The mixture was shaken on a microplate shaker for 1 min, centrifuged at 400 g for 1 min, and incubated at 37 °C for 30 min. Then, 25 µL of QPCT developer was added to each well, and the mixture was sufficiently mixed using a shaker for 1 min, centrifuged at 400 g for 1 min, and incubated at 37 °C for another 60 min. After the incubation was completed, the fluorescence values were read using a microplate reader, with parameter settings as follows: Ex/Em = 490 nm/520 nm. […] Curves were plotted using GraphPad Prism 9 software with the compound concentration (nM) as the abscissa and the enzyme activity inhibition rate (%) as the ordinate. Four-parameter fitting was performed, and the IC50 values for the inhibition of the QPCT enzyme activity by the compounds were calculated.

In a further data set the target is T2, human QPCTL (Homo sapiens, UniProt Q9NXS2).
T2 construct: purchased Sino Biological NXS6-1
The data set can be described thus: Inhibition of human QPCTL enzyme activity (adjusted SensoLyte Green Glutaminyl Cyclase Activity Assay Kit). The class given is biochemical. As to conditions: human QPCTL enzyme (Sino Biological). As to the method:
as §1
as §2, with “0.5 mM QPCT enzyme substrate was diluted to 5 µM with a buffer at a ratio of 1:100; 50 µg/mL QPCT enzyme was diluted to 125 ng/mL with a buffer and placed on ice for later use; QPCT developer was diluted with a buffer at a ratio of 1:250 and placed on ice for later use (the QPCT enzyme substrate, the QPCT enzyme, the buffer, and the QPCT developer were all from the kit). The working” for “The working”
The SensoLyte® Green Glutaminyl Cyclase Activity Assay Kit was appropriately adjusted by replacing the QPCT enzyme in it with human QPCTL enzyme (Sino Biological, Cat. No. NXS6-1) (the concentration of the working solution was kept unchanged) for determining the IC50 values for the inhibition of human QPCTL enzyme activity by compounds. […]

Another data set has as its target T3, CYP2D6 (Homo sapiens, UniProt P10635).
T3 construct: 1 µL of 20 mg/mL liver microsome solution; from tissue; host or cells: liver microsomes
Briefly: Inhibition of CYP2D6 enzyme activity in liver microsomes. The data set is classed as in vitro ADME. The following applies: substrate dextromethorphan, 15 min.

Data set [1] in a line: Metabolic stability in liver microsomes (human). The class given is in vitro ADME. As to conditions: pH 7.4; human liver microsomes 0.5 mg/mL, 1 µM compound, 1 mM NADPH; read-out: Half-life (t1/2, min) (human). As to the method:
(§3) The experimental procedures were as follows: 1. […] 2. Preparation of reaction system The reaction system was prepared as follows:
(§4) 3. The reaction system was pre-incubated in a 37 °C water bath for 10 min. 20 µL of 10 mM NADPH solution (NADPH was dissolved by 100 mM phosphate-buffered saline) was added to the reaction system with a final concentration of NADPH being 1 mM. 20 µL phosphate-buffered saline was used instead of the NADPH solution to serve as the negative control. The negative control was used to exclude the effect of chemical stability of the compound itself. 4. The reaction was initiated by adding 2 µL of 100 µM compound of the present disclosure and verapamil, the positive control compound, to the reaction system with a final concentration of the compound being 1 µM. 5.
(§5) All data were calculated using Microsoft Excel software. The peak area was obtained by extracting an ion chromatogram.

Data set [2] is described as follows: Metabolic stability in liver microsomes (mouse). The class given is in vitro ADME. As to conditions: pH 7.4; mouse liver microsomes 0.5 mg/mL, 1 µM compound, 1 mM NADPH; read-out: Half-life (t1/2, min) (mouse). How it is done: as §3, §4, §5
The next data set concerns the target T4, CYP2C9 (Homo sapiens, UniProt P11712).
T4 construct: 1 µL of 20 mg/mL liver microsome solution; from tissue; host or cells: liver microsomes
Briefly: Inhibition of CYP2C9 enzyme activity in liver microsomes. The class given is in vitro ADME. As to conditions: substrate diclofenac, 15 min.

The target in a further data set is T5, CYP3A4 (Homo sapiens, UniProt P08684).
T5 construct: 1 µL of 20 mg/mL liver microsome solution; from tissue; host or cells: liver microsomes
Briefly: Inhibition of CYP3A4 enzyme activity in liver microsomes. The data set is classed as in vitro ADME. The following applies: substrate midazolam, 15 min.

Each structure is given as a SMILES string.

T1 sequence (Q16769 29-361): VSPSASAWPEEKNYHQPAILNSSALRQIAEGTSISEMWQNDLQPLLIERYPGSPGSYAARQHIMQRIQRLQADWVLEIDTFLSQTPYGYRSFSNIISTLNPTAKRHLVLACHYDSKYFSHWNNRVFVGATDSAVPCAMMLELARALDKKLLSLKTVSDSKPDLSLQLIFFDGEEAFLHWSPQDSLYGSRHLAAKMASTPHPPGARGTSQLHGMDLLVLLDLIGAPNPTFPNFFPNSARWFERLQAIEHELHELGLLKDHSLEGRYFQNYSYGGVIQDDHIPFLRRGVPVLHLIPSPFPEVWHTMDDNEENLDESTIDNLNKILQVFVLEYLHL
T2 sequence (Q9NXS2 whole entry): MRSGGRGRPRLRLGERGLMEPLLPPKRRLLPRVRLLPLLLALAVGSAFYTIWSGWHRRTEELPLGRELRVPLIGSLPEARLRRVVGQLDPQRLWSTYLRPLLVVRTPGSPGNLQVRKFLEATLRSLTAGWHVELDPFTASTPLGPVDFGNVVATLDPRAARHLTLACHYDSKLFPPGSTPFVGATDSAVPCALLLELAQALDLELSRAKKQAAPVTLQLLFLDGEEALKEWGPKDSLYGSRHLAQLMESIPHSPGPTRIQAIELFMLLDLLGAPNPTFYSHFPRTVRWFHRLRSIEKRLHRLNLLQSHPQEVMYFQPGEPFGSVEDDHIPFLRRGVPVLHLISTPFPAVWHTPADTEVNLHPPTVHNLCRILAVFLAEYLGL
T4 sequence (P11712 whole entry): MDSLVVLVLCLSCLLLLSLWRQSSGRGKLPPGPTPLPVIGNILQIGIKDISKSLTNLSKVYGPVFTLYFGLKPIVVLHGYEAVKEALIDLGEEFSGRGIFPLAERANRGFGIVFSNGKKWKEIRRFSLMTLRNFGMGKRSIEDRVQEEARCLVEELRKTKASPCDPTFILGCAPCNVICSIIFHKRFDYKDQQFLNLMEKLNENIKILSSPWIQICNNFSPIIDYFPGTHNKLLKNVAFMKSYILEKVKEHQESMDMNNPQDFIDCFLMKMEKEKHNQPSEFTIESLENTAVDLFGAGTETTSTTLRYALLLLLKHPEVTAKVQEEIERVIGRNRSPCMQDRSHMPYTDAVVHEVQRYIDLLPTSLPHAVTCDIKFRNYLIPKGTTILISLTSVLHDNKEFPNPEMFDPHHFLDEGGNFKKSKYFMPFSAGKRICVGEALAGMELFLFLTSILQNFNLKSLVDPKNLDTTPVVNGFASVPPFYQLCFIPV
T5 sequence (P08684 whole entry): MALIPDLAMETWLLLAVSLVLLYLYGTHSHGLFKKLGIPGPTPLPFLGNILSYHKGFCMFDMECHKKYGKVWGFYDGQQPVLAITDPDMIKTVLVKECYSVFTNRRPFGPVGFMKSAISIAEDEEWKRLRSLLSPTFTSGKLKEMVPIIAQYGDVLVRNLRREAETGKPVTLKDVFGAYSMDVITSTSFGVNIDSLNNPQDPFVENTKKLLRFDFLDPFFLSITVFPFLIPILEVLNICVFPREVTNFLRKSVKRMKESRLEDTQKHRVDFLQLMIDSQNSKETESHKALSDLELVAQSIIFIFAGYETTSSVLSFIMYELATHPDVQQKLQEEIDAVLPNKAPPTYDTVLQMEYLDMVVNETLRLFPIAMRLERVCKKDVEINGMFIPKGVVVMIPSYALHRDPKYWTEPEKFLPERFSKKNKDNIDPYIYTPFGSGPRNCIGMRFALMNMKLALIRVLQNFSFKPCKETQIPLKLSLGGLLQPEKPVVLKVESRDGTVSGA
T3 sequence (P10635 whole entry): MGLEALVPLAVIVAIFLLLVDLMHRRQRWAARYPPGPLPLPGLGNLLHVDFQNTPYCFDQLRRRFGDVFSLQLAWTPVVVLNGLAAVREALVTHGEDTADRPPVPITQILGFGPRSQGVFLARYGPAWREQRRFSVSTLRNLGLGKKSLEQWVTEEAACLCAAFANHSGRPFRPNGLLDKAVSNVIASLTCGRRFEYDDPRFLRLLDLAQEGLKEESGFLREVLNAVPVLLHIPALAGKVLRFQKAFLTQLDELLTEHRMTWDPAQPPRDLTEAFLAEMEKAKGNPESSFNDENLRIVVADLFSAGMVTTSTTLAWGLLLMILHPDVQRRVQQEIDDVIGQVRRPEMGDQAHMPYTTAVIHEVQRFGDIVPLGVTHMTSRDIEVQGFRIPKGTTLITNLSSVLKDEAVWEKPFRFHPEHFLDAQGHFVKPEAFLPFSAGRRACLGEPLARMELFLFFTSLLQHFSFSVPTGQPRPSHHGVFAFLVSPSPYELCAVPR

The compound `O=C1C[C@H](C23CC(F)(C2)C3)N1c1ccc2[nH]cnc2c1` [Compound 2] showed an IC50 on human QPCT of 170 nM.
Regarding `CCCOC12CC([C@H]3CC(=O)N3c3ccc4[nH]cnc4c3)(C1)C2` [Compound 3], the results for the IC50 on human QPCT and against human QPCTL were 52.4 nM and 6.5 nM, respectively.
In the case of `O=C1C[C@H](C23CC(c4ccc(F)cc4)(C2)C3)N1c1ccc2[nH]cnc2c1` [Compound 4], the concentration for half-maximal inhibition (IC50) against human QPCT worked out at 10.7 nM; at human QPCTL it was 3.9 nM.
Compound `O=C1C[C@H](C23CC(c4ccncc4)(C2)C3)N1c1ccc2[nH]cnc2c1` [Compound 5] displayed an IC50 at human QPCT of 8.5 nM.
Take `N#Cc1ccc(C23CC([C@H]4CC(=O)N4c4ccc5[nH]cnc5c4)(C2)C3)cc1` [Compound 6]: the IC50 on human QPCT was found to be 19.1 nM.
With `O=C1C[C@H](C23CC(N4CCOCC4)(C2)C3)N1c1ccc2[nH]cnc2c1` [Compound 7], the concentration for half-maximal inhibition (IC50) was over 50000 nM against CYP2D6; 36.8 nM on human QPCT; 25.1 nM at human QPCTL; over 50000 nM on CYP2C9; over 50000 nM against CYP3A4. Moreover, the figures for the half-life at 1 µM in data set [1] and in data set [2] were 316 min and 325 min, respectively.
`COC12CC([C@H]3CC(=O)N3c3ccc4[nH]cnc4c3)(C1)C2` [Compound 8]: at human QPCT, half-maximal inhibition (IC50) required 166 nM.
On human QPCT, `CC12CC([C@H]3CC(=O)N3c3ccc4nc[nH]c4c3)(C1)C2` [Compound 9] came in with an IC50 of 37.3 nM.
The same measure, in the same setting: under `O=C1C[C@H](C23CC(CF)(C2)C3)N1c1ccc2nc[nH]c2c1` [Compound 10] stands 58.9 nM; under `[2H][C@]1(C23CC(C2)C3)CC(=O)N1c1ccc2[nH]cnc2c1` [Compound 11], 42.5 nM; under `O=C1C[C@H](C23CC(Cl)(C2)C3)N1c1ccc2[nH]cnc2c1` [Compound 13], 73.2 nM.

(Values after EP4786464A1, “COMPOUND AS GLUTAMINE CYCLASE INHIBITOR” (Simcere Pharmaceutical Co., Ltd., priority 2023, dated 2025).)
